Assays:
Assay in all cases: Cell proliferation Ex.3
Assay type in all cases: cell-based
HCT15 = settings: Homo sapiens, HCT-15
Description: (§1) A dose response relationship on cell proliferation was assessed for Compound 13 on 140 tumor cell lines. […] Cells were cultured in the appropriate media. For the assays, cells were seeded in white cell culture-treated flat and clear bottom multiwell plates and incubated at 37° C. overnight before compound was added. […] on the medium, cell plates were equilibrated to room temperature for one hour, CellTiterGlo reagent (Promega) was added and luminescence was measured approximately an hour later using a luminometer. Raw data were converted into percent cell viability relative to the high and low control, which were set to 10000 and 000, respectively.

THP-1 = settings: Homo sapiens
Description: as §1

RD = settings: Homo sapiens
Description: as §1

JIMT1 = settings: Homo sapiens, JIMT-1
Description: as §1

A673 = settings: Homo sapiens
Description: as §1

HEK293 = settings: Homo sapiens
Description: as §1

PC3 = settings: Homo sapiens, PC-3
Description: as §1

JEG3 = settings: Homo sapiens, JEG-3
Description: as §1

HCT116 = settings: Homo sapiens, HCT-116
Description: as §1

SAOS2 = settings: Homo sapiens, SAOS-2
Description: as §1

OVCAR4 = settings: Homo sapiens, OVCAR-4
Description: as §1

A431 = settings: Homo sapiens, A-431
Description: as §1

NCI-H292 = settings: Homo sapiens
Description: as §1

UMUC3 = settings: Homo sapiens
Description: as §1

SU-DHL-10 = settings: Homo sapiens, SU-DHL10
Description: as §1

A204 = settings: Homo sapiens
Description: as §1

EJ28 = settings: Homo sapiens, EJ-28
Description: as §1

BT20 = settings: Homo sapiens, BT-20
Description: as §1

22RV1 = settings: Homo sapiens
Description: as §1

CACO2 = settings: Homo sapiens, Caco-2
Description: as §1

SKLMS1 = settings: Homo sapiens, SK-LMS-1
Description: as §1

MT3 = settings: MT-3
Description: as §1

T24 = settings: Homo sapiens, T-24
Description: as §1

CAKI1 = settings: Homo sapiens, CAKI-1
Description: as §1

LOVO = settings: Homo sapiens
Description: as §1

A375 = settings: Homo sapiens, A-375
Description: as §1

Measured: IC50

C#C[C@]1(CO)O[C@@H](n2cc(F)c(N)nc2=O)C[C@@H]1O [compound 9]
3.8 µM: 22RV1; 22Rv1, 72 h
3.86 µM: SU-DHL-10; SU-DHL-10, 168 h
0.14 µM: SU-DHL-10; SU-DHL-10, 72 h
3.04 µM: MT3; MT3, 120 h
61.5 µM: SU-DHL-10; SU-DHL-10, 120 h
1.42 µM: A431; A431, 168 h
3.18 µM: A431; A431, 120 h
3.69 µM: 22RV1; 22Rv1, 168 h
3.28 µM: 22RV1; 22Rv1, 120 h | LOVO; 120 h
> 10 µM: HCT15; HCT15, 72 h | HCT15; HCT15, 120 h | HCT15; HCT15, 168 h | THP-1; THP-1, 72 h | THP-1; THP-1, 120 h | THP-1; THP-1, 168 h | RD; 72 h | RD; 120 h | RD; 168 h | JIMT1; JIMT1, 72 h | JIMT1; JIMT1, 120 h | JIMT1; JIMT1, 168 h | A673; A673, 72 h | A673; A673, 120 h | A673; A673, 168 h | HEK293; HEK293, 72 h | HEK293; HEK293, 120 h | HEK293; HEK293, 168 h | PC3; PC3, 72 h | PC3; PC3, 120 h | PC3; PC3, 168 h | JEG3; JEG3, 72 h | JEG3; JEG3, 120 h | JEG3; JEG3, 168 h | HCT116; HCT116, 72 h | HCT116; HCT116, 120 h | HCT116; HCT116, 168 h | SAOS2; SAOS2, 72 h | SAOS2; SAOS2, 120 h | SAOS2; SAOS2, 168 h | OVCAR4; OVCAR4, 72 h | OVCAR4; OVCAR4, 120 h | OVCAR4; OVCAR4, 168 h | A431; A431, 72 h | NCI-H292; NCI-H292, 72 h | NCI-H292; NCI-H292, 120 h | NCI-H292; NCI-H292, 168 h | UMUC3; UMUC3, 72 h | UMUC3; UMUC3, 120 h | UMUC3; UMUC3, 168 h | A204; A204, 72 h | A204; A204, 120 h | A204; A204, 168 h | EJ28; EJ28, 72 h | EJ28; EJ28, 120 h | EJ28; EJ28, 168 h | BT20; BT20, 72 h | BT20; BT20, 120 h | BT20; BT20, 168 h | CACO2; CACO2, 72 h | CACO2; CACO2, 120 h | CACO2; CACO2, 168 h | SKLMS1; SKLMS1, 72 h | SKLMS1; SKLMS1, 120 h | SKLMS1; SKLMS1, 168 h | MT3; MT3, 72 h | MT3; MT3, 168 h | T24; T24, 72 h | T24; T24, 120 h | T24; T24, 168 h | CAKI1; CAKI1, 72 h | CAKI1; CAKI1, 120 h | CAKI1; CAKI1, 168 h | LOVO; 72 h | A375; A375, 72 h | A375; A375, 120 h | A375; A375, 168 h
2.06 µM: LOVO; 168 h

Reference: patent publication US20230293526A1, “METHOD FOR TREATING CANCER WITH A REVERSE TRANSCRIPTASE INHIBITOR” (PrimeFour Therapeutics, Inc., priority 2020, published 2023)
